The test system of data set [1] is Gram positive, gram negative bacteria, certain yeasts and various fungi. In words: Antimicrobial spectrum: bacteria, yeasts and fungi destroyed or rendered static. It counts as cell-based.
Data set [2] concerns gram negative pathogens such as Pseudomonas species. Conditions: background statement; cited from earlier work.
A short description of data set [3]: Residues in milk after application to the udder. It counts as in vivo, cow. From the text: The sensitivity of the analytical method employed met the stringent criteria set by various governmental agencies.
Data set [4] concerns S. aureus. In words: MIC on Mueller-Hinton agar plates, mastitis pathogens. The class given is cell-based. Particulars: Staphylococcus aureus; 18-24 hours at 37° C.; less than one colony per plate; duplicate. The method, then:
(§1) The products of this inventions have a broad inhibitory spectrum and high potency. One test system employed seven different mastitis pathogens inoculated onto separate Mueller-Hinton agar plates which contained 1, 5, 10, 20, 40, 80 or 100 mcg./ml. of the cited dihydrochloride final concentration. After incubation for 18-24 hours at 37° C., the minimal inhibitory concentration was determined as that showing less than one colony per plate; all assays were made in duplicate. The MIC's in mcg./ml. observed were: Streptococcus dysgalactiae, 1; Streptococcus uberis, 1; Streptococcus agalactiae, 1; S. aureus, 5; E. coli, 5; Klebsiella sp., 5; and Pseudomonas aeruginosa, 80.

The test system of data set [5] is E. coli. Described as above. It counts as cell-based. Particulars: Escherichia coli; 18-24 hours at 37° C.; less than one colony per plate; duplicate. As to the method:
as §1

In data set [6] the test system is Streptococcus agalactiae. Described as above. The class given is cell-based. Particulars: 18-24 hours at 37° C., less than one colony per plate, duplicate. The method, then:
as §1

Data set [7] has as its system Pseudomonas aeruginosa. Described as above. The class given is cell-based. Particulars: 18-24 hours at 37° C., less than one colony per plate, duplicate. The method, then:
as §1

Data set [8] deals with Klebsiella sp. The description is as above. The class given is cell-based. Conditions: 18-24 hours at 37° C., less than one colony per plate, duplicate. As to the method:
as §1

Data set [9] relates to Streptococcus dysgalactiae. The description is as above. Particulars: 18-24 hours at 37° C., less than one colony per plate, duplicate. It counts as cell-based. The method, then: as §1
For data set [10], the system named is Streptococcus uberis. Described as above. The class given is cell-based. Particulars: 18-24 hours at 37° C., less than one colony per plate, duplicate. As to the method:
as §1

The test system of data set [11] is S. aureus. In words: Excised cow's udder teat dip in vitro (modified National Mastitis Council's Protocol A). Conditions: Staphylococcus aureus, 10 min, 0.5% solution. As to the method: (§2) Additional efficacy studies were made using a laboratory modification of the National Mastitis Council's Protocol A with excised cow's udder in vitro. Prepared teats were dipped to a depth of approximately 15 mm. into a skim milk inoculum containing the test bacteria and then allowed to drain for 5 minutes. Then each teat was dipped into a distilled water solution of the cited dihydrochloride salt using concentrations which ranged from 0.05 up to 1% to a depth of 25 mm. After a period of 10 minutes the removal of any surviving organisms was accomplished by rinsing the teats using 5 ml. of a quenching solution of lecithin (0.05%), tween-80 (0.5%) and sodium thiosulfate (0.5%). The rinse solutions were diluted in sterile saline, plated on an appropriate medium and incubated at 37° C. for 18-20 hours. Colonies were then counted for only those plates with 15-300 colonies, and all dilutions were plated in duplicate. The percent reduction in microorganisms on the teat surfaces was determined using as controls the inoculated teats dipped in sterile distilled water. […] A 0.1% solution caused a 99% reduction for Pseudomonas aeruginosa.

The test system of data set [12] is E. coli. The data set is described as above. Conditions: Escherichia coli, 10 min, 0.5% solution. The method, then: as §2
Data set [13] deals with Streptococcus agalactiae. The description is as above. Conditions: 10 min, 0.5% solution. The method, then: as §2
The subject of data set [14] is Pseudomonas aeruginosa. The description is as above. Conditions: 10 min. The method, then:
as §2

Data set [15] deals with Klebsiella sp. The description is as above. Particulars: 10 min, 0.5% solution. As to the method: as §2
Data set [16] has as its system Streptococcus dysgalactiae. Described as above. Conditions: 10 min, 0.5% solution. As to the method:
as §2

For data set [17], the system named is Streptococcus uberis. The data set is described as above. Conditions: 10 min, 0.5% solution. The method, then:
as §2

Data set [18] is described as follows: Toxicity and skin irritation, overall. The class given is in vivo. The source says: (§3) Thus instead of contributing to or initiating skin cracking and drying the diaminopropanol derivative should promote healing of damaged skin areas whether inflicted mechanically, by weather conditions or as the result of exposure to toxic chemical treatments.
The subject of data set [19] is intact or abraded dorsal skin of shaved areas (rabbits). In words: Skin irritation, occlusive dressing 24 hours. It counts as in vivo.
From the text: as §3

The next data set has as its system eye. Conditions: in vivo.
From the text: as §3

The next data set in a line: in vivo. Particulars: mouse, mice, oral, 100 mg./ml. in 1% aqueous methylcellulose (100 cps), read-out: acute oral LD50.
From the text: as §3

As for `CC(C)c1ccc(CCC(CCc2ccc(C(C)C)cc2)NCC(O)CN)cc1` (stereo not shown) [Example 1, 1-Amino-3-{{3-[4-(1-methylethyl)phenyl]-1-{2-[4-(1-methylethyl)phenyl]ethyl}propyl}amino]-2-propanol], the “concentrations by which many are controlled” value in data set [1] (many organisms) is on record as “one to one-hundred”. In data set [1] (overall range), the “concentrations by which bacteria, yeasts and fungi are destroyed or rendered static” value is “less than one to one-thousand”.
With `[H]/N=C(\N/C(=N/[H])NCCCCCCNC(=N)NC(=N)Nc1ccc(Cl)cc1)Nc1ccc(Cl)cc1` [chlorhexidine], the “effectiveness against gram negative pathogens” value in data set [2] was “poorly effective”.
In the case of `CC(C)c1ccc(CCC(CCc2ccc(C(C)C)cc2)NCC(O)CN)cc1.Cl.Cl.O` (stereo not shown) [cited dihydrochloride, 1-amino-3-{{3-[4-(1-methylethyl)phenyl]-1-{2-[4-(1-methylethyl)phenyl]ethyl}propyl}amino]-2-propanol dihydrochloride monohydrate], the “residues in the milk” value in [3] (1% solution applied to the udder, preliminary experiments) is “no detectable residues”. In addition, the skin penetration result in data set [3] (bovine) is reported as “appears unable to penetrate the skin”. Besides, the MIC (commonly the lowest concentration that inhibits growth of the organism) worked out at 5 µg/mL in the data set on S. aureus [4]; 5 µg/mL against E. coli [5]; 1 µg/mL against Streptococcus agalactiae [6]; 80 µg/mL against Pseudomonas aeruginosa [7]; 5 µg/mL with Klebsiella sp. [8]; 1 µg/mL in data set [9]. In the data set with Streptococcus uberis [10], the MIC was 1 µg/mL. The killing at 0.5 % is 98 to 99.8% in the data set with S. aureus [11]; over 99.8% in the data set with E. coli [12]; over 99.8% with Streptococcus agalactiae [13]; over 99.8% in the data set on Pseudomonas aeruginosa [14] (0.5% solution); over 99.8% in the data set with Klebsiella sp. [15]; 98 to 99.8% in [16]. This molecule yielded a killing at 0.5 % in the data set with Streptococcus uberis [17] of over 99.8%. Moreover, the killing at 0.1 % in the data set with Pseudomonas aeruginosa [14] (0.1% solution, read-out: reduction) was 99%. In addition, in [18] (in vivo), the “skin irritation, overall” value was “practically non-irritating on skin”. Besides, the toxicity result in data set [18] (overall statement) is listed as “low toxicity”. The skin irritation entry in data set [19] (1% solution in distilled water, intact or abraded skin, 24 hours occlusive, observed two weeks) is listed as “essentially non-irritating”; in data set [19] (5% in distilled water) it was “slightly irritating”. Further, the “signs of skin irritation remaining” value in data set [19] (5% in distilled water, after seven days) is reported as “no signs remaining after seven days”. Further, in the data set with eye, the eye irritation result was “very slightly irritating”. Further, the “time for eye effects to disappear” value with eye is at most 24 h. Moreover, the LD50 (commonly the dose expected to kill half of the subjects tested) in “in vivo” was 1300 mg/kg.

These data come from patent US4311709A, “Loweralkyl substituted diphenyl polyamine as an antimicrobial agent” (priority 1979, dated 1982).
